# Source: PubChem BioAssay AID1963848 (Molecular Pharmacology Branch, DTP, NCI, 2024)
# Values joined by “and” are separate entries in the source; they are usually repeats but may differ in a detail not shown here. Equal entries are not always repeated.
# Tested on: 379773-124-R-J2-PDC spheroid viability
# Assay: Anticancer human tumor 379773-124-R-J2-PDC patient-derived endometrial carcinoma cell line growth inhibition [POLQ]
# Conditions: spheroids with HUVEC and MSC; for viability, T/C: stronger effect = lower value
# Outline: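 Patient-derived tumour cells were co-cultured with HUVEC and mesenchymal stem cells as multicellular spheroids at 37 °C. They were treated with POLQ inhibitors (novobiocin, ART-558, RP6685) alone or combined with other agents. Top concentrations were at or near clinical Cmax (otherwise 10 microM; SN-38 at 1 microM), decreasing in half-log steps.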
# [1] = curve of first compound, second compound 0.0316 µM
# [2] = curve of first compound, second compound 0.1 µM
# [3] = curve of first compound, second compound 0.316 µM
# [4] = curve of first compound, second compound 1 µM
# [5] = curve of first compound, second compound 3.16 µM
# [6] = curve of first compound, second compound 10 µM
# [7] = second compound 0.0316 µM, first compound 0.0316 µM
# [8] = second compound 0.0316 µM, first compound 0.1 µM
# [9] = second compound 0.1 µM, first compound 0.0316 µM
# [10] = second compound 0.1 µM, first compound 0.1 µM
# [11] = second compound 0.316 µM, first compound 0.0316 µM
# [12] = second compound 0.316 µM, first compound 0.1 µM
# [13] = second compound 1 µM, first compound 0.0316 µM
# [14] = second compound 1 µM, first compound 0.1 µM
# [15] = second compound 3.16 µM, first compound 0.0316 µM
# [16] = second compound 3.16 µM, first compound 0.1 µM
# [17] = second compound 10 µM, first compound 0.0316 µM
# [18] = second compound 10 µM, first compound 0.1 µM
# [19] = second compound 0.0316 µM, first compound 0.316 µM
# [20] = second compound 0.0316 µM, first compound 1 µM
# [21] = second compound 0.0316 µM, first compound 3.16 µM
# [22] = second compound 0.0316 µM, first compound 10 µM
# [23] = second compound 0.1 µM, first compound 0.316 µM
# [24] = second compound 0.1 µM, first compound 1 µM
# [25] = second compound 0.1 µM, first compound 3.16 µM
# [26] = second compound 0.1 µM, first compound 10 µM
# [27] = second compound 0.316 µM, first compound 0.316 µM
# [28] = second compound 0.316 µM, first compound 1 µM
# [29] = second compound 0.316 µM, first compound 3.16 µM
# [30] = second compound 0.316 µM, first compound 10 µM
# [31] = second compound 1 µM, first compound 0.316 µM
# [32] = second compound 1 µM, first compound 1 µM
# [33] = second compound 1 µM, first compound 3.16 µM
# [34] = second compound 1 µM, first compound 10 µM
# [35] = second compound 3.16 µM, first compound 0.316 µM
# [36] = second compound 3.16 µM, first compound 1 µM
# [37] = second compound 3.16 µM, first compound 3.16 µM
# [38] = second compound 3.16 µM, first compound 10 µM
# [39] = second compound 10 µM, first compound 0.316 µM
# [40] = second compound 10 µM, first compound 1 µM
# [41] = second compound 10 µM, first compound 3.16 µM
# [42] = second compound 10 µM, first compound 10 µM
# 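Further: spheroids exposed to drugs for seven days before readout.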
# 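Wherever viability, T/C is given: percent viability relative to DMSO vehicle control taken as 100%.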
compound,measurement,setting,value
Cn1ncnc1[C@H]1c2n[nH]c(=O)c3cc(F)cc(c23)N[C@@H]1c1ccc(F)cc1 + COC1C(OC(N)=O)C(O)C(Oc2ccc3c(O)c(NC(=O)c4ccc(O)c(CC=C(C)C)c4)c(=O)oc3c2C)OC1(C)C,IC50,[1],> 0.1 µM
same,IC50,[2],> 0.1 µM
same,IC50,[3],> 0.1 µM
same,IC50,[4],> 0.1 µM
same,IC50,[5],> 0.1 µM
same,IC50,[6],> 0.1 µM
same,"viability, T/C","second compound 0.0316 µM, first compound 0.000316 µM",97.8%
same,"viability, T/C","second compound 0.0316 µM, first compound 0.001 µM",82.9%
same,"viability, T/C","second compound 0.0316 µM, first compound 0.00316 µM",99.7%
same,"viability, T/C","second compound 0.0316 µM, first compound 0.01 µM",96.3%
same,"viability, T/C",[7],74%
same,"viability, T/C",[8],56.1%
same,"viability, T/C","second compound 0.1 µM, first compound 0.000316 µM",90.3%
same,"viability, T/C","second compound 0.1 µM, first compound 0.001 µM",93.4%
same,"viability, T/C","second compound 0.1 µM, first compound 0.00316 µM",110%
same,"viability, T/C","second compound 0.1 µM, first compound 0.01 µM",87.2%
same,"viability, T/C",[9],69.9%
same,"viability, T/C",[10],56.4%
same,"viability, T/C","second compound 0.316 µM, first compound 0.000316 µM",91.4%
same,"viability, T/C","second compound 0.316 µM, first compound 0.001 µM",78.5%
same,"viability, T/C","second compound 0.316 µM, first compound 0.00316 µM",82.5%
same,"viability, T/C","second compound 0.316 µM, first compound 0.01 µM",85.4%
same,"viability, T/C",[11],74%
same,"viability, T/C",[12],66.2%
same,"viability, T/C","second compound 1 µM, first compound 0.000316 µM",86.7%
same,"viability, T/C","second compound 1 µM, first compound 0.001 µM",83.2%
same,"viability, T/C","second compound 1 µM, first compound 0.00316 µM",85.2%
same,"viability, T/C","second compound 1 µM, first compound 0.01 µM",92.3%
same,"viability, T/C",[13],67.6%
same,"viability, T/C",[14],60.9%
same,"viability, T/C","second compound 3.16 µM, first compound 0.000316 µM",86.6%
same,"viability, T/C","second compound 3.16 µM, first compound 0.001 µM",89.3%
same,"viability, T/C","second compound 3.16 µM, first compound 0.00316 µM",89.5%
same,"viability, T/C","second compound 3.16 µM, first compound 0.01 µM",78.8%
same,"viability, T/C",[15],83.3%
same,"viability, T/C",[16],56.1%
same,"viability, T/C","second compound 10 µM, first compound 0.000316 µM",86%
same,"viability, T/C","second compound 10 µM, first compound 0.001 µM",87%
same,"viability, T/C","second compound 10 µM, first compound 0.00316 µM",89.3%
same,"viability, T/C","second compound 10 µM, first compound 0.01 µM",76%
same,"viability, T/C",[17],74%
same,"viability, T/C",[18],58.1%
CC(C)n1c(=O)n(C)c2cnc3cc(F)c(-c4ccc(OCCCN5CCCCC5)nc4)cc3c21 + Cc1cccc(N(C)C(=O)C2C(O)CCN2c2nc(C)cc(C(F)(F)F)c2C#N)c1,IC50,[1],> 10 µM
same,IC50,[2],> 10 µM
same,IC50,[3],> 10 µM
same,IC50,[4],> 10 µM
same,IC50,[5],> 10 µM
same,IC50,[6],> 10 µM
same,"viability, T/C",[7],89.1%
same,"viability, T/C",[8],76.9%
same,"viability, T/C",[19],83.4%
same,"viability, T/C",[20],77.9%
same,"viability, T/C",[21],83%
same,"viability, T/C",[22],59.9%
same,"viability, T/C",[9],88.8%
same,"viability, T/C",[10],77.1%
same,"viability, T/C",[23],77.2%
same,"viability, T/C",[24],79.9%
same,"viability, T/C",[25],98.7%
same,"viability, T/C",[26],65.8%
same,"viability, T/C",[11],80.3%
same,"viability, T/C",[12],89.8%
same,"viability, T/C",[27],75.9%
same,"viability, T/C",[28],73.6%
same,"viability, T/C",[29],79.7%
same,"viability, T/C",[30],65.1%
same,"viability, T/C",[13],84%
same,"viability, T/C",[14],75.1%
same,"viability, T/C",[31],80.1%
same,"viability, T/C",[32],73.1%
same,"viability, T/C",[33],79.1%
same,"viability, T/C",[34],69.8%
same,"viability, T/C",[15],73.7%
same,"viability, T/C",[16],75.3%
same,"viability, T/C",[35],75.3%
same,"viability, T/C",[36],64.4%
same,"viability, T/C",[37],72%
same,"viability, T/C",[38],72.1%
same,"viability, T/C",[17],78.7%
same,"viability, T/C",[18],79.5%
same,"viability, T/C",[39],89.2%
same,"viability, T/C",[40],73.9%
same,"viability, T/C",[41],70.3%
same,"viability, T/C",[42],56.1%
CCc1cc2c(N3CCc4c(cc(Cn5ccnc5)cc4-c4cn(C)nc4C(F)(F)F)C3=O)cc(C)nc2c(OC)n1,"viability, T/C",compound 0.0316 µM,70.7% and 94% and 69.3%
same,"viability, T/C",compound 0.1 µM,73.2% and 69.1% and 70.4%
same,"viability, T/C",compound 0.316 µM,54.8% and 60.2% and 68.2%
same,"viability, T/C",compound 1 µM,55.9% and 57.2% and 61.2%
same,"viability, T/C",compound 3.16 µM,41.9% and 60.5% and 56.2%
same,"viability, T/C",compound 10 µM,40% and 47.3% and 48.9%
same,IC50,curve of compound,1.26 µM and > 10 µM and 8.12 µM
CNCc1ccc(-c2[nH]c3cc(F)cc4c3c2CCNC4=O)cc1 + COC1C(OC(N)=O)C(O)C(Oc2ccc3c(O)c(NC(=O)c4ccc(O)c(CC=C(C)C)c4)c(=O)oc3c2C)OC1(C)C,IC50,[1],> 10 µM
same,IC50,[2],> 10 µM
same,IC50,[3],> 10 µM
same,IC50,[4],> 10 µM
same,IC50,[5],> 10 µM
same,IC50,[6],> 10 µM
same,"viability, T/C",[7],104%
same,"viability, T/C",[8],86.1%
same,"viability, T/C",[19],84.5%
same,"viability, T/C",[20],74.5%
same,"viability, T/C",[21],82.5%
same,"viability, T/C",[22],78.1%
same,"viability, T/C",[9],102%
same,"viability, T/C",[10],86.7%
same,"viability, T/C",[23],90.5%
same,"viability, T/C",[24],88.2%
same,"viability, T/C",[25],87.8%
same,"viability, T/C",[26],82.9%
same,"viability, T/C",[11],95.5%
same,"viability, T/C",[12],96.8%
same,"viability, T/C",[27],87.8%
same,"viability, T/C",[28],93.2%
same,"viability, T/C",[29],77.2%
same,"viability, T/C",[30],78.4%
same,"viability, T/C",[13],91.8%
same,"viability, T/C",[14],98.2%
same,"viability, T/C",[31],78.1%
same,"viability, T/C",[32],86.1%
same,"viability, T/C",[33],82.6%
same,"viability, T/C",[34],67.3%
same,"viability, T/C",[15],79.8%
same,"viability, T/C",[16],79.9%
same,"viability, T/C",[35],76.2%
same,"viability, T/C",[36],85.1%
same,"viability, T/C",[37],80.1%
same,"viability, T/C",[38],78.3%
same,"viability, T/C",[17],80.3%
same,"viability, T/C",[18],81.7%
same,"viability, T/C",[39],96.5%
same,"viability, T/C",[40],75.5%
same,"viability, T/C",[41],76.7%
same,"viability, T/C",[42],65.7%
COc1ccc([C@@H](O)c2cc(-c3ncnc4cc(N5CCOCC5)ccc34)c(F)cc2Cl)nn1 + Nc1ccc(C#CCN(C(=O)Cc2ncc(C(F)(F)F)cc2C(F)(F)F)c2ccc(F)cc2)nn1,IC50,[1],9.88 µM
same,IC50,[2],7.66 µM
same,IC50,[3],7.78 µM
same,IC50,[4],9.09 µM
same,IC50,[5],7.08 µM
same,IC50,[6],8.7 µM
same,"viability, T/C",[7],98.9%
same,"viability, T/C",[8],104%
same,"viability, T/C",[19],101%
same,"viability, T/C",[20],83.8%
same,"viability, T/C",[21],89.1%
same,"viability, T/C",[22],48.4%
same,"viability, T/C",[9],90.3%
same,"viability, T/C",[10],104%
same,"viability, T/C",[23],89.6%
same,"viability, T/C",[24],95.2%
same,"viability, T/C",[25],77%
same,"viability, T/C",[26],41.6%
same,"viability, T/C",[11],98.4%
same,"viability, T/C",[12],96.2%
same,"viability, T/C",[27],99.3%
same,"viability, T/C",[28],91.4%
same,"viability, T/C",[29],105%
same,"viability, T/C",[30],36.7%
same,"viability, T/C",[13],97.4%
same,"viability, T/C",[14],83.9%
same,"viability, T/C",[31],85.6%
same,"viability, T/C",[32],99.9%
same,"viability, T/C",[33],79.5%
same,"viability, T/C",[34],47.4%
same,"viability, T/C",[15],91.8%
same,"viability, T/C",[16],92.1%
same,"viability, T/C",[35],82.6%
same,"viability, T/C",[36],90.3%
same,"viability, T/C",[37],76.4%
same,"viability, T/C",[38],38.8%
same,"viability, T/C",[17],90.8%
same,"viability, T/C",[18],87%
same,"viability, T/C",[39],87.8%
same,"viability, T/C",[40],85.9%
same,"viability, T/C",[41],105%
same,"viability, T/C",[42],44.2%
COc1cccc2c1C(=O)c1c(O)c3c(c(O)c1C2=O)CC(O)(C(=O)CO)CC3OC1CC(N)C(O)C(C)O1 (configuration not stated),"viability, T/C",compound 0.0316 µM,78.1% and 95.3% and 81.8%
same,"viability, T/C",compound 0.1 µM,25% and 40.3% and 29.4%
same,"viability, T/C",compound 0.316 µM,7.16% and 12.4% and 5.32%
same,"viability, T/C",compound 1 µM,7.82% and 10.6% and 5.98%
same,"viability, T/C",compound 3.16 µM,1.99% and 2.49% and 0.93%
same,"viability, T/C",compound 10 µM,0.82% and 0.3% and 0.62%
same,IC50,curve of compound,0.0581 µM and 0.0807 µM and 0.0636 µM
